Here are results for 2 compounds from publication PMC6801562, “PIEZO1 and TRPV4, which Are Distinct Mechano-Sensors in the Osteoblastic MC3T3-E1 Cells, Modify Cell-Proliferation” (International Journal of Molecular Sciences, 2019).

In one test the target is T1, TRPV4 (MC3T3-E1 cells) (Mus musculus, UniProt Q9EPK8).
T1 construct: native full-length channel in mouse osteoblastic MC3T3-E1 cells (Riken Cell Bank); identity supported by siTRPV4 knockdown
Briefly: Fura-2 Ca2+ imaging, MC3T3-E1 cells, Hill fit. The test is classed as cell-based. The following applies: agonist; native cells; pH 7.4, 2.2 mM Ca2+, n = 7.

Test [1] addresses T2, mouse PIEZO1 (mPIEZO1; HEK-mPiezo1) (Mus musculus, UniProt E2JF22).
T2 construct: mouse Piezo1 (Addgene) in pcDNA3.1 / pIRES2-AcGFP1, transiently transfected in HEK 293 cells; low endogenous human PIEZO1 in host
Nature of the test: Fura-2 Ca2+ imaging, HEK cells, Hill fit. The test is classed as cell-based.

T2 sequence (E2JF22 whole entry): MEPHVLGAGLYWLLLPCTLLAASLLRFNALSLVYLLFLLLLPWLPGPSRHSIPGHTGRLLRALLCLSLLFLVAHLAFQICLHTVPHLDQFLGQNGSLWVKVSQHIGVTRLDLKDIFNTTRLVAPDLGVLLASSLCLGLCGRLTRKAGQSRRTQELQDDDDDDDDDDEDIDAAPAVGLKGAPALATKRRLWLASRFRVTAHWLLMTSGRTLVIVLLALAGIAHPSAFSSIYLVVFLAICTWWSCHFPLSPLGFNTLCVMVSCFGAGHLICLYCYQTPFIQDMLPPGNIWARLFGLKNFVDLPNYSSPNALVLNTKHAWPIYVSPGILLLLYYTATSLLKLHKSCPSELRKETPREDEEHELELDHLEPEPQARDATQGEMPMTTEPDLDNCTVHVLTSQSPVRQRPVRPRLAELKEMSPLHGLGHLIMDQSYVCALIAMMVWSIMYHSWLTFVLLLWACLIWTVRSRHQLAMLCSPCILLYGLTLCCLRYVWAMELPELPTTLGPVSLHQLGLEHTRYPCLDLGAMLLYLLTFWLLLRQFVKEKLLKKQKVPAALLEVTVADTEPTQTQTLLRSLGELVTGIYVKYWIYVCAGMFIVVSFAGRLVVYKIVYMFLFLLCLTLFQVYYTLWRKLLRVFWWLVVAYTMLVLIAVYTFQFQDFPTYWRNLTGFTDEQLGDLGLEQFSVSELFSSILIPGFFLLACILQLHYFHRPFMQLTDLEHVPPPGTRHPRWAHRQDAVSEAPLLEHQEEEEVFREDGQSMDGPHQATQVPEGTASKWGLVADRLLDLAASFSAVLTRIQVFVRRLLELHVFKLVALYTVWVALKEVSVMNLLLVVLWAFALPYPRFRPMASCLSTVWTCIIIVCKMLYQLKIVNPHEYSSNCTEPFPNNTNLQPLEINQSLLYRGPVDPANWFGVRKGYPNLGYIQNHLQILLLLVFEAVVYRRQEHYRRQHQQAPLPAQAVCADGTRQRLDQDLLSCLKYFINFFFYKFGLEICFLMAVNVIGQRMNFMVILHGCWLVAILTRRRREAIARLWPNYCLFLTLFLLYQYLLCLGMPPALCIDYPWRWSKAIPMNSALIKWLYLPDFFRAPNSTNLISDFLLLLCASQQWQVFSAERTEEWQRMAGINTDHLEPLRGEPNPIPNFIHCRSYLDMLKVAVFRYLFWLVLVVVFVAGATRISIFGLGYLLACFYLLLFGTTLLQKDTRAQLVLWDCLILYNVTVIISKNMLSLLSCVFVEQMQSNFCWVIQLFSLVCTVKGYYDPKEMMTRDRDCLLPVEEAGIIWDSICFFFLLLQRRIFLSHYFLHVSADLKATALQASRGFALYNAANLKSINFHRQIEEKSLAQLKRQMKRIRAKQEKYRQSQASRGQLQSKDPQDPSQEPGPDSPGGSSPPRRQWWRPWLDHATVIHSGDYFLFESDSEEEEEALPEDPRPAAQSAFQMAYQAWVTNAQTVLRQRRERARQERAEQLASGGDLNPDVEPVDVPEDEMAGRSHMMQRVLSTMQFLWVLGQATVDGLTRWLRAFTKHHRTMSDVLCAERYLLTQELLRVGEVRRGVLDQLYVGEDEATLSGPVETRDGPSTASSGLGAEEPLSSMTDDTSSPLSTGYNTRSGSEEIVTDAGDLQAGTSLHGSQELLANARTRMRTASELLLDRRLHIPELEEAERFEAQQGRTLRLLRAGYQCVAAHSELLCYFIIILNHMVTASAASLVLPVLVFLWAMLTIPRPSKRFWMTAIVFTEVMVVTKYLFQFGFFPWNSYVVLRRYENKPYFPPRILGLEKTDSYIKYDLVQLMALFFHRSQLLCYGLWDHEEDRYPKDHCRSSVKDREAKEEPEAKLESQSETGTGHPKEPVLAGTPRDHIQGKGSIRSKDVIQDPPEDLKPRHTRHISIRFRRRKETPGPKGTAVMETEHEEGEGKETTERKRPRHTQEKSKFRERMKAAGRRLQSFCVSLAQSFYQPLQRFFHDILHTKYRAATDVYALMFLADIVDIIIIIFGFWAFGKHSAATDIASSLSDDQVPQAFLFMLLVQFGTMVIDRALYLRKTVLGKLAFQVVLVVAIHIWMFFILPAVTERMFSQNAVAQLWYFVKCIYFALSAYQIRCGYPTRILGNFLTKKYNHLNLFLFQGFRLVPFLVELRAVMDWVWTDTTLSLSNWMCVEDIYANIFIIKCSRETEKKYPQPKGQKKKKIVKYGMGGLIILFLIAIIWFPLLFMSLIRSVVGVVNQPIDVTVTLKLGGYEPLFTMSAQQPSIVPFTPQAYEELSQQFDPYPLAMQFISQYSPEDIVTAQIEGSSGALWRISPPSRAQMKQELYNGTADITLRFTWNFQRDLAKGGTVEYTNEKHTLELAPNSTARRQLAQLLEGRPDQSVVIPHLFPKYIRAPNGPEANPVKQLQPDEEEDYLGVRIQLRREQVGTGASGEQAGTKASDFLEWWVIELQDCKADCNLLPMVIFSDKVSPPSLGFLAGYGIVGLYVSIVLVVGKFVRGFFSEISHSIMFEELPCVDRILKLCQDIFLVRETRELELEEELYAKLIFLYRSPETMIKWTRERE
T1 sequence (Q9EPK8 whole entry): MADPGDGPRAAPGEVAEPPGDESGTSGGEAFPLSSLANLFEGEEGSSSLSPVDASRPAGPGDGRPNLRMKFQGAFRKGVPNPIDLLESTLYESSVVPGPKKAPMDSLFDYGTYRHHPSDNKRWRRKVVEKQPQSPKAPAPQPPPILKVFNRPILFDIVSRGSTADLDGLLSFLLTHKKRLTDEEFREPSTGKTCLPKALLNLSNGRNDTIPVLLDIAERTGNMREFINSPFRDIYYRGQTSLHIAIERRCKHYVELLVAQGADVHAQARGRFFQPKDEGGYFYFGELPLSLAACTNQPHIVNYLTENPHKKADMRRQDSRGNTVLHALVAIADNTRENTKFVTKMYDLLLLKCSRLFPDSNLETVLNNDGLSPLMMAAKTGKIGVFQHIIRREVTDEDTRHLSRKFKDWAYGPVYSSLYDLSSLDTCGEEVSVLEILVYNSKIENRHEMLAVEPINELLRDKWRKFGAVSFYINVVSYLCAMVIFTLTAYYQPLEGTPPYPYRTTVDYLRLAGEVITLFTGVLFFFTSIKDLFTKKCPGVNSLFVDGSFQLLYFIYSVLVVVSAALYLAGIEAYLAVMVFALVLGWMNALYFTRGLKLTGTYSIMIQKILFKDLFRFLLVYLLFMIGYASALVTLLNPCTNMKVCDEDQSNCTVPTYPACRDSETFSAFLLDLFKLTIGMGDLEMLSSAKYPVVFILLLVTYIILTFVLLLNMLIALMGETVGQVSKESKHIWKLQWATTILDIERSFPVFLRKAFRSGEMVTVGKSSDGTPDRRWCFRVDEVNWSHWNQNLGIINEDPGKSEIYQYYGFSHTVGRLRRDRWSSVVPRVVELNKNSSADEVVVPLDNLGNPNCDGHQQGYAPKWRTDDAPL

For the compound `CC(C)C[C@H](NC(=O)c1cc2ccccc2s1)C(=O)N1CCN(C(=O)[C@H](CO)NS(=O)(=O)c2ccc(Cl)cc2Cl)CC1` [GSK1016790A], on TRPV4 (MC3T3-E1 cells), the concentration for a half-maximal effect (EC50) worked out at 2.25 ± 0.45 nM.

Compound `Clc1cccc(Cl)c1CSc1nnc(-c2cnccn2)s1` [Yoda1, 2-[5-[[(2,6-Dichlorophenyl)methyl]thio]-1,3,4-thiadiazol-2-yl]-pyrazine] registered an EC50 in test [1] of 380 ± 70 nM.
